Experimental data as given in publication PMC7449411, “In silico discovery and biological validation of ligands of FAD synthase, a promising new antimicrobial target” (PLoS Computational Biology, 2020).
In brackets after ≈: the same amount, converted by molar mass.

Key:
C. ammoniagenes = test: MIC, resazurin broth microdilution; assay type: cell-based, Corynebacterium ammoniagenes; settings: for MIC: C. ammoniagenes; for MIC C. ammoniagenes: S5 Fig legend, medium not stated; for MIC (μM) C. ammoniagenes: Table 3
C. glutamicum = test: MIC, resazurin broth microdilution; assay type: cell-based, Corynebacterium glutamicum; settings: media BHI
C. diphteriae = test: MIC, resazurin broth microdilution; assay type: cell-based, Corynebacterium diphteriae
M. tuberculosis = test: MIC, resazurin broth microdilution; assay type: cell-based, Mycobacterium tuberculosis; settings: for MIC: M. tuberculosis, media 7H9G-ADC; for MIC (μM) M. tuberculosis: Table 3
E. coli = test: MIC, resazurin broth microdilution; assay type: cell-based, Escherichia coli; settings: media LB
L. monocytogenes = test: MIC, resazurin broth microdilution; assay type: cell-based, Listeria monocytogenes; settings: media BHI
P. aeruginosa = test: MIC, resazurin broth microdilution; assay type: cell-based, Pseudomonas aeruginosa; settings: media MH
S. thyphimurium = test: MIC, resazurin broth microdilution; assay type: cell-based, Salmonella thyphimurium; settings: media MH
S. aureus = test: MIC, resazurin broth microdilution; assay type: cell-based, Staphylococcus aureus; settings: media MH
Bacillus spp. = test: MIC, resazurin broth microdilution; assay type: cell-based, Bacillus sp.; settings: media MH
Mycobacteriumspecies = test: MIC against Mycobacterium species (S5 Fig legend); assay type: cell-based
A549 = test: MTT cytotoxicity assay; assay type: cell-based; settings: 24 h; for IC50: 4-512 μM range, read-out: IC50 (concentration causing 50% inhibition of cellular viability)
Protocol: (§1) The (4,5-dimethylthiazol-2-yl)-2,5-diphenyl tetrazolium bromide (MTT) assay was used to determine the effect of the compounds in cell growth and viability of HeLa (ATCC CCL-2) and A549 (ATCC CCL-185) eukaryotic cell lines. Both cell lines were routinely cultured in high-glucose DMEM (Lonza) supplemented with 10% fetal bovine serum, 4 mM glutamine GlutaMAX™ (Gibco) and 1x non-essential amino acids (Gibco), under 5% CO2 at 37 °C in a humidified atmosphere. For the MTT assay, cells were initially seeded in 96-well flat-bottom plates at a density of 10^4 cells per well and cultured for 24 h. Cultures were routinely tested for mycoplasma presence. The compounds were dissolved in fresh culture medium, added in a 4-512 μM concentration range (1% DMSO final concentration), and incubated with the cells for 24 h. Finally, formazan crystals were dissolved with pure DMSO and MTT absorbance was measured at 570 and 650 nm. Untreated cells were included as control of 100% viability. Assays were done in quadruplicate.

HeLa = test: MTT cytotoxicity assay; assay type: cell-based; settings: 24 h; for IC50: 4-512 μM range, read-out: IC50 (concentration causing 50% inhibition of cellular viability)
Protocol: as §1

CaFADS = molecular target: T1, CaFADS (Corynebacterium ammoniagenes, UniProt Q59263); test: Differential scanning fluorescence (thermal denaturation) binding to CaFADS; settings: for Tm shift of CaFADS thermal denaturation: 2 μM CaFADS, compound up to 250 μM; for Kd: from differential scanning fluorescence data fitted to Eq 2, 20 mM PIPES pH 7.0, 10 mM MgCl2, 2% DMSO, n = 3, mean ± SD
T1 construct: made in house; host or cells: Escherichia coli BL21(DE3)
Protocol: Interaction of compounds with CaFADS was evaluated using fluorescence thermal denaturation, on the bases of the shifts in denaturation midpoints of thermal curves of the protein [65]. Denaturations were performed in a Stratagene Agilent Mx3005p qPCR instrument (Santa Clara, US) following SYPR Orange (ThermoFisher Scientific) emission fluorescence (excitation at 492 nm and emission at 610 nm), which greatly increases when this probe binds to protein hydrophobic regions becoming solvent exposed upon thermal unfolding. Solutions containing 2 μM CaFADS with the studied compound in an increasing 5-250 μM concentration range (2% residual final concentration of DMSO) and 5xSYPR Orange in 20 mM PIPES pH 7.0, 10 mM MgCl2, with a 100 μL total volume were dispensed into 96-well microplates (BRAND 96-well plates pure grade™). After an initial 1 min incubation at 25 °C within the equipment, unfolding curves were registered from 25 to 100 °C at 1 °C·min^−1. Control experiments with CaFADS samples with/without DMSO were routinely performed in each microplate. For those compounds shifting midpoint denaturation temperature, Tm, the dissociation constant, Kd, was predicted by fitting the data to the equation [66] ΔTm/Tm=NRTm0/ΔH0ln(1+[L]/Kd), (2) which estimates the extent of the ligand-induced protein stabilization/destabilization. ΔTm=|Tm-Tm0| with Tm0 and Tm being the midpoint denaturation temperatures in the absence and the presence of ligand, respectively, and ΔH0 the unfolding enthalpy of the protein in the absence of ligand.

FMNAT activity of CaFADS = molecular target: T2, FMNAT activity of CaFADS (Corynebacterium ammoniagenes, UniProt Q59263); test: Inhibition of the FMNAT activity of CaFADS; assay type: biochemical
T2 construct: made in house; host or cells: Escherichia coli BL21(DE3)
Protocol: (§2) To determine the compound’s ability to inhibit the RFK and/or the FMNAT activities of CaFADS, both enzymatic activities were quantitatively measured in the absence and presence of the compounds following previously described protocols. Reaction mixtures contained 50 μM ATP, 5 μM RF in 20 mM PIPES, pH 7.0, 0.8 mM MgCl2, when assaying the RFK activity, and 50 μM ATP, 10 μM FMN in 20 mM PIPES, pH 7.0, 10 mM MgCl2 when measuring the FMNAT reaction. Each compound was tested at 250 μM (0.5% residual final concentration of DMSO) for each of the two enzymatic reactions. The samples were pre-incubated at 25 °C, the reaction was then initiated by the addition of ∼ 40 nM CaFADS (final concentration) and allowed for 1 min. Finally, the reaction was stopped by boiling the samples for 5 min and the denatured protein was eliminated through centrifugation. The transformation of RF into FMN and FAD (RFK activity) and of FMN into FAD (FMNAT activity) was evaluated through flavins separation by HPLC (Waters), as previously described. All the experiments were performed in triplicate. To evaluate the potency of compounds as inhibitors, we took advantage of the decrease in quantum yield of fluorescence when FMN is transformed into FAD, which allows to follow such transformation in a continuous system. Measurements were carried out using a microplate reader Synergy HT multimode plate reader (Biotek) with BRAND 96-well plates pure Grade. Reaction mixtures contained 5 μM RF or FMN, and 50 μM ATP in 20 mM PIPES, pH 7.0, 10 mM MgCl2, and the inhibitor compound in a 5-250 μM concentration range (2% residual final concentration of DMSO). Reactions were initiated through addition of 0.4 μM CaFADS, being the final reaction volume 100 μL. Flavin fluorescence (excitation at 440 nm and emission at 530 nm) was registered at 25 °C, every 50 s during 15 min. The fluorescence change per time unit (ΔF/Δt) was calculated as the slope of the resulting fluorescence decays recorded between 0 and 6 min (linear decay of the fluorescence). Controls which contained the reaction mixture without the enzyme and without any potential CaFADS inhibitory compound were included in the assay and referred as the 0% and 100% of enzymatic activity, respectively. IC50 was calculated as the concentration of compound required for a 50% inhibition of the enzymatic activity.

M. smegmatis = test: MIC, resazurin broth microdilution; assay type: cell-based, Mycobacterium smegmatis; settings: media 7H9G-ADC
S. pneumoniae = test: MIC, resazurin broth microdilution; assay type: cell-based, Streptococcus pneumoniae
[1] = molecular target: T3, RFK+FMNAT CaFADS activities (Corynebacterium ammoniagenes, UniProt Q59263); test: Inhibition of the RFK+FMNAT activity of CaFADS; assay type: biochemical; settings: residual activity at 250 μM of compound, 25 °C
T3 construct: made in house; host or cells: Escherichia coli BL21(DE3)
Protocol: as §2

[2] = complete viability at lower concentrations

T1 sequence (Q59263 whole entry): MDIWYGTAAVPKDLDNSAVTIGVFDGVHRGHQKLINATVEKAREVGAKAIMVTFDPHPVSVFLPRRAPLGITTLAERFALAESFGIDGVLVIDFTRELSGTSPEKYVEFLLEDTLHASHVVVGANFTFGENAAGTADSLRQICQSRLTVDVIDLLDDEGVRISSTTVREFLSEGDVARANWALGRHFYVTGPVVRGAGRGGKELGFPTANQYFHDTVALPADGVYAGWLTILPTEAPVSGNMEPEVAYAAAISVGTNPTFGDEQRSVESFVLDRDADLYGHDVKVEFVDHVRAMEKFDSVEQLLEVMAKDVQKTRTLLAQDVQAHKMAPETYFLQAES
T2 sequence (Q59263 whole entry): as above
T3 sequence (Q59263 whole entry): as above

Structure (SMILES)	MIC (C. ammoniagenes; media MH) [µM]	MIC (C. ammoniagenes; media MH+DFO) [µM]	MIC (C. ammoniagenes; media MH+DIP) [µM]	MIC (C. ammoniagenes; media MH+DIP+DFO) [µM]	MIC C. ammoniagenes (C. ammoniagenes)	MIC (μM) C. ammoniagenes (C. ammoniagenes) [µM]	MIC (C. glutamicum) [µM]	MIC (C. diphteriae; media MH) [µM]	MIC (M. tuberculosis) [µM]	MIC (μM) M. tuberculosis (M. tuberculosis) [µM]	MIC (E. coli) [µM]	MIC (L. monocytogenes) [µM]	MIC (P. aeruginosa) [µM]	MIC (S. thyphimurium) [µM]	MIC (S. aureus) [µM]	MIC (Bacillus spp.) [µM]	MIC Mycobacterium species (Mycobacteriumspecies)	Tm shift of CaFADS thermal denaturation (CaFADS)	Kd (CaFADS) [µM]	MIC (C. ammoniagenes; media BHI) [µM]	also measured
CC1(C)c2ccccc2-n2c1cc1oc(=O)cc(O)c1c2=O [Compound C27, 4-hydroxy-11,11-dimethyl-5,11-dihydro-2H-pyrano[2',3':4,5]pyrido[1,2-a]indole-2,5-dione]	128 (≈ 37.8 µg/mL)	128 (≈ 37.8 µg/mL)	64 (≈ 18.9 µg/mL)	128 (≈ 37.8 µg/mL)	lower than 256 μM	128 (≈ 37.8 µg/mL)	64 (≈ 18.9 µg/mL)	64 (≈ 18.9 µg/mL)	256 (≈ 75.6 µg/mL)	256 (≈ 75.6 µg/mL)	> 256	64 (≈ 18.9 µg/mL)	> 256	> 256	64 (≈ 18.9 µg/mL)	32 (≈ 9.45 µg/mL)	lower than 256 μM				concentration range with moderate cytotoxicity (A549; [2]): 256 to 512 µM; concentration range with moderate cytotoxicity (HeLa; [2]): 256 to 512 µM
O=C(Nc1ccccc1C(=O)O)OCC1c2ccccc2-c2ccccc21 [Compound C5, 2-{[(9H-9-fluorenylmethoxy)carbonyl]amino}benzoic acid]	32 (≈ 11.5 µg/mL)	32 (≈ 11.5 µg/mL)	32 (≈ 11.5 µg/mL)	32 (≈ 11.5 µg/mL)		32 (≈ 11.5 µg/mL)	32 (≈ 11.5 µg/mL)	32 (≈ 11.5 µg/mL)	128 (≈ 46 µg/mL)	128 (≈ 46 µg/mL)	> 64	> 64	> 256	> 256		32 (≈ 11.5 µg/mL)	lower than 256 μM	shifted it to lower values	1.7 ± 0.7	> 64	inhibition of the FMNAT activity of CaFADS (FMNAT activity of CaFADS; at the maximal compound concentration assayed (250 μM)): over 90%; MIC (C. diphteriae; media BHI): 64 µM (≈ 23 µg/mL); MIC (M. smegmatis): > 256 µM; MIC (S. pneumoniae; media BHI): 128 µM (≈ 46 µg/mL); MIC (S. pneumoniae; media MH): 256 µM (≈ 92 µg/mL); IC50 (A549): > 512 µM; IC50 (HeLa): > 512 µM
CC(C)c1ccc(NC(=S)NNC(=O)NC(=O)c2csc([N+](=O)[O-])c2)cc1 [Compound C6, N-({2-[(4-isopropylanilino)carbothioyl]hydrazino}carbonyl)-5-nitrothiophene-3-carboxamide]	128 (≈ 52.2 µg/mL)	128 (≈ 52.2 µg/mL)	128 (≈ 52.2 µg/mL)	128 (≈ 52.2 µg/mL)	lower than 256 μM	128 (≈ 52.2 µg/mL)	> 64	128 (≈ 52.2 µg/mL)		128 (≈ 52.2 µg/mL)	> 64	> 64	> 256	> 256	> 256		lower than 256 μM	more than 3 degrees	41 ± 3	> 64	FMNAT % Res. act. 250 μM (FMNAT activity of CaFADS; residual activity at 250 μM of compound, 25 °C): 48 ± 6%; RFK+FMNAT % Res. act. 250 μM [1]: 57 ± 3%; MIC (C. diphteriae; media BHI): > 64 µM; MIC (M. smegmatis): > 256 µM; MIC (S. pneumoniae; media BHI): > 256 µM; MIC (S. pneumoniae; media MH): 64 µM (≈ 26.1 µg/mL); IC50 (A549): > 512 µM; IC50 (HeLa): > 512 µM
